This is an account of results in ChEMBL document CHEMBL1137926, “S-(2-(acylamino)phenyl) 2,2-dimethylpropanethioates as CETP inhibitors” (Bioorg Med Chem Lett, 2004).

The target of the assay is T1, Cholesteryl ester transfer protein (Homo sapiens, UniProt P11597).
T1 sequence (P11597 whole entry): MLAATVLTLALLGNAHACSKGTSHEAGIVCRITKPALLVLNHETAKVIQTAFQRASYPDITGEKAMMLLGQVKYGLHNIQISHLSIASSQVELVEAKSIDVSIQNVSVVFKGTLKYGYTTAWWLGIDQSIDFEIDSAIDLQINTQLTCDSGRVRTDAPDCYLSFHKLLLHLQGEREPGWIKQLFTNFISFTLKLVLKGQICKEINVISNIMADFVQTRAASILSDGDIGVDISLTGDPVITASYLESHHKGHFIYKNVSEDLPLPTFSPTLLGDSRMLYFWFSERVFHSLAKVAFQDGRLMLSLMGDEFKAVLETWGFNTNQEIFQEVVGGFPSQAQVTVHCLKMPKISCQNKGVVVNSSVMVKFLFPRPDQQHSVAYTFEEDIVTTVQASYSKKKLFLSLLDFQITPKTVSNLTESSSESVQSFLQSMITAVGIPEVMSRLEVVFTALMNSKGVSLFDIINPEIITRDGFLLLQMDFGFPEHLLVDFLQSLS
The assay can be described thus: In vitro inhibition of CETP activity was assessed by measuring the rate of [3H]- cholesteryl ester transfer from HDL to apoprotein B-containing lipoproteins in human plasma. It counts as cell-free.
Consider `CC(C)CCC1(C(=O)Nc2cc(C(F)(F)F)ccc2SC(=O)C(C)(C)C)CCCCC1`, for which the IC50 was determined as 13 µM.

`CC(C)CCC1(C(=O)Nc2ccc(Cl)cc2SC(=O)C(C)(C)C)CCCCC1`: the IC50 stood at 10 µM. On to `CC(C)(C)C(=O)Sc1cc(F)cc(F)c1NC(=O)C1(C)CCCCC1`, for which the IC50 was greater than 300 µM.

As for `COc1ccc(SC(=O)C(C)(C)C)c(NC(=O)C2(C)CCCCC2)c1`, the IC50 is greater than 300 µM. Molecule `CC(C)(C)C(=O)Sc1ccc(C#N)cc1NC(=O)C1(C)CCCCC1` gave an IC50 of 102 µM. Under `COc1ccc(SC(=O)C(C)(C)C)c(NC(=O)C2(CCC(C)C)CCCCC2)c1` stands greater than 300 µM; under `CC(C)(C)C(=O)Sc1ccc(F)cc1NC(=O)C1(C)CCCCC1`, 70 µM; under `CC(C)(C)C(=O)Sc1cc(F)ccc1NC(=O)C1(C)CCCCC1`, 78 µM. As to `CC(C)(C)C(=O)Sc1c(F)cccc1NC(=O)C1(C)CCCCC1`, the IC50 was greater than 300 µM. Turning to `CC(C)CCC1(C(=O)Nc2cc(Cl)ccc2SC(=O)C(C)(C)C)CCCCC1`, the IC50 stood at 13 µM.

As to `Cc1ccc(SC(=O)C(C)(C)C)c(NC(=O)C2(CCC(C)C)CCCCC2)c1`, the IC50 is greater than 300 µM.

As a reminder, the IC50 is the concentration that inhibits the measured activity by half.
